Like-named read-outs stand apart in the source and are kept apart here.
Legend:
ADORA2A [1] = molecular target: T1, ADORA2A (Homo sapiens, UniProt P29274); test: GPCR screening, Calcium Flux (calcium mobilization), Agonist format; assay type: cell-based; details: read-out: Max Response
Description: (§1) Cell lines were expanded from freezer stocks according to standard procedures. Cells were seeded in a total volume of 20 μL into black-walled, clear-bottom, Poly-D-lysine coated 384-well microplates and incubated at 37° C. for the appropriate time prior to testing.
(§2) Assays were performed in 1×Dye Loading Buffer consisting of 1×Dye, 1×Additive A and 2.5 mM Probenecid in HBSS/20 mM Hepes. Probenicid was prepared fresh. Cells were loaded with dye prior to testing. Media was aspirated from cells and replaced with 20 μL Dye Loading Buffer. Cells were incubated for 30-60 minutes at 37° C.
For agonist determination, cells were incubated with sample to induce response. […] Cells were incubated for 30 minutes at room temperature in the dark to equilibrate plate temperature.
Compound activity was analyzed using CBIS data analysis suite (ChemInnovation, CA).
(§3) When the calcium was released, the fluorescence of the dye was increased and the increase was measured in real-time.

ADORA2A [2] = molecular target: T1, ADORA2A; test: GPCR screening, Calcium Flux (calcium mobilization), Antagonist format; assay type: cell-based; details: for Emax: read-out: Max Response
Description: as §1, §2
For antagonist determination, cells were pre-incubated with sample followed by agonist challenge at the EC80 concentration. Intermediate dilution of sample stocks was performed to generate 3X sample in assay buffer. After dye loading, cells were removed from the incubator and 10 μL 3X sample was added. Cells were incubated for 30 minutes at room temperature in the dark to equilibrate plate temperature. Vehicle concentration was 1%.
Compound antagonist activity was measured on a FLIPR Tetra (MDS). Calcium mobilization was monitored for 2 minutes and 10 μL EC80 agonist in HBSS/20 mM Hepes was added to the cells 5 seconds into the assay.
For antagonist and negative allosteric modulation mode assays, percentage inhibition is calculated using the following formula: […]
as §3
FIGS. 1 and 2 show percent reacted (Y) versus concentration in μM (X). Compounds were tested in antagonist mode with the requested GPCR Biosensor Assay. For the antagonist assay, data was normalized to the maximal and minimal response observed in the presence of EC80 ligand and vehicle.

[3] = Calcium Flux, Antagonist format
[4] = Calcium Flux, Antagonist format, EC80 0.021 μM NECA, read-out: RC50 (Result Type IC50)
[5] = antagonist mode, text to FIGS. 1 and 2, EC80 0.021 μM NECA, read-out: half maximal inhibitory concentration (IC50)

T1 sequence (P29274 whole entry): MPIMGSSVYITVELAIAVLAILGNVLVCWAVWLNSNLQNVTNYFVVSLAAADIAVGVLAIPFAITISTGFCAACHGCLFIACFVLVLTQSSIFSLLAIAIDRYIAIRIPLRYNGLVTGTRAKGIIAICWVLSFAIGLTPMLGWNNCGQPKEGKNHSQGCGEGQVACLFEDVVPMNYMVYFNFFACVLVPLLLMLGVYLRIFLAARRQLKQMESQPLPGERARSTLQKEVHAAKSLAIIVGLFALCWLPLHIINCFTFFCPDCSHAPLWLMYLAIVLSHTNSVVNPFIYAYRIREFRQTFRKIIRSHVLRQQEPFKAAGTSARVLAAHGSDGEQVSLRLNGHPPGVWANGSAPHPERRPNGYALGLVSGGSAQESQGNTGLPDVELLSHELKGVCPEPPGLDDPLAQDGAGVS

Row | Emax (ADORA2A [1]) [%] | Curve Bottom (ADORA2A [2]; [3]) | Curve Top (ADORA2A [2]; [3]) | Hill (ADORA2A [2]; [3]) | IC50 (ADORA2A [2]; [4]) [nM] | Emax (ADORA2A [2]; [3]) [%] | IC50 (ADORA2A [2]; [5]) [nM] | Compound
1 | 0 | 7.8668 | 99.957 | 1.7211 | 174 | 99.1 | 174 | CCn1c(=O)c2c(nc(/C=C/c3ccc(OC)c(OCF)c3)n2C)n(CC)c1=O [Compound 8, (E)-1,3-diethyl-8-(3-(fluoromethoxy)-4-methoxystyryl)-7-methyl-3,7-dihydro-1H-purine-2,6-dione]
2 | 0 | −.090144 | 99.922 | 1.3438 | 95.5 | 99.7 | 95.5 | CCn1c(=O)c2c(nc(/C=C/c3ccc(OCF)c(OC)c3)n2C)n(CC)c1=O [Compound 9, (E)-1,3-diethyl-8-(4-(fluoromethoxy)-3-methoxystyryl)-7-methyl-3,7-dihydro-1H-purine-2,6-dione]

From patent publication US20250353849A1, “PURINE COMPOUNDS FOR TREATING DISORDERS” (MARVEL BIOTECHNOLOGY, priority 2021, published 2025)
